From patent US20050159345A1 (Boehringer Ingelheim International GmbH, priority 2002, published 2005)

Columns and labels:
[1] = molecular target: T1, HCV 3a NS3-NS4A heterodimer protein (UniProt Q81258); assay: In vitro HCV NS3 protease assay (fluorogenic depsipeptide), genotype 3a; assay type: biochemical, HCV genotype 3a; conditions: read-out: IC50 HCV-3a; HCV 3a NS3-NS4A protease
T1 construct: fused on or other part: 28 extra N-terminal residues with a hexahistidine tag and an rTEV cleavage site
T1 sequence (Q81258 1033-1663): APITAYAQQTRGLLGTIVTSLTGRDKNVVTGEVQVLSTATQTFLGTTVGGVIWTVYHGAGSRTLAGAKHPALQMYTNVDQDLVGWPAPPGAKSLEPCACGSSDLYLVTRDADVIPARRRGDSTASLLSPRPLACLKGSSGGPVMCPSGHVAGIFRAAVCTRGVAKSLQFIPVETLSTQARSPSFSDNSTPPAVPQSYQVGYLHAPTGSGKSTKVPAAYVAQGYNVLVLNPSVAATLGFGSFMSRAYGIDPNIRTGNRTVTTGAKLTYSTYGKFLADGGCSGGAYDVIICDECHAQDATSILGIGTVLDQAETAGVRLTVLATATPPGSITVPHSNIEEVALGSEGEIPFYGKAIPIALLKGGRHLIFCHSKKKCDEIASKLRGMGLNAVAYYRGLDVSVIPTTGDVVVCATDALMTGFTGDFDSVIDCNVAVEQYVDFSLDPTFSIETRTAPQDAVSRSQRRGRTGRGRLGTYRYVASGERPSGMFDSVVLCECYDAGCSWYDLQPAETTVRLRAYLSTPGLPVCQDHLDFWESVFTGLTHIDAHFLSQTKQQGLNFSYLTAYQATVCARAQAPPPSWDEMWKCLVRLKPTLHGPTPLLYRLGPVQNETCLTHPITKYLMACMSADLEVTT
Excerpt: (§1) The NS3-NS4 protease genes of HCV genotypes 2b and 3a were amplified from RNA isolated from clinical samples of HCV-infected patients obtained from Dr. G. Steinmann (Germany) using RT-PCR. The primers used for the RT-PCR were 5′[…]3′ (SEQ ID No. 6) as the forward and 5′[…]3′ (SEQ ID No.7) as the reverse primer for the NS3-NS4A of HCV genotype 2b and; 5′[…]3′ (SEQ ID No. 8) as the forward and 5′[…]3′ (SEQ ID No. 9) as the reverse primer for HCV genotype 3a. Each primer contained a unique restriction site for subcloning the fragment in the bacterial expression vector pET11a. The cloning into the vector generated a recombinant fusion protein containing an additional N-terminal 28 residues that comprised a hexahistidine tag and a rTEV protease cleavage site. The recombinant plasmids were used to transform the bacterial strain BL21 DE3 pLysS for protein expression and recombinant protein expression was induced by the addition of IPTG. Following expression, the cells were collected by centrifugation at 4° C. and the cell pellet lysed in a buffer containing 50 mM sodium phosphate, 0.5M NaCl, 40% glycerol, 1.5% NP-40, 0.5% Triton X-100 and the soluble protein fraction was passed through a 5ml HiTrap chelating affinity column as described above. A poly(U)-Sepharose purification step can optionally be conducted in order to remove degradation products and contaminants. […]
(§2) The fluorescence was monitored using the BMG POLARstar Galaxy 96-well plate reader with an excitation filter of 320 nm, and an emission filter of 405 nm. The level of inhibition (% inhibition) of each well containing test compound was calculated with the following equation (FU=fluorescence unit): [formula]
(§3) The calculated % inhibition values were then used to determine IC50, slope factor (n) and maximum inhibition (Imax) by the non-linear regression routine NLIN procedure of SAS using the following equation: [formula] […]

[2] = molecular target: T2, HCV 2b NS3-NS4A heterodimer protein (UniProt P26661); assay: In vitro HCV NS3 protease assay (fluorogenic depsipeptide), genotype 2b; assay type: biochemical, HCV genotype 2b; conditions: read-out: IC50 HCV-2b; HCV 2b NS3-NS4A protease
T2 construct: fused on or other part: 28 extra N-terminal residues with a hexahistidine tag and an rTEV cleavage site
T2 sequence (P26661 1031-1661): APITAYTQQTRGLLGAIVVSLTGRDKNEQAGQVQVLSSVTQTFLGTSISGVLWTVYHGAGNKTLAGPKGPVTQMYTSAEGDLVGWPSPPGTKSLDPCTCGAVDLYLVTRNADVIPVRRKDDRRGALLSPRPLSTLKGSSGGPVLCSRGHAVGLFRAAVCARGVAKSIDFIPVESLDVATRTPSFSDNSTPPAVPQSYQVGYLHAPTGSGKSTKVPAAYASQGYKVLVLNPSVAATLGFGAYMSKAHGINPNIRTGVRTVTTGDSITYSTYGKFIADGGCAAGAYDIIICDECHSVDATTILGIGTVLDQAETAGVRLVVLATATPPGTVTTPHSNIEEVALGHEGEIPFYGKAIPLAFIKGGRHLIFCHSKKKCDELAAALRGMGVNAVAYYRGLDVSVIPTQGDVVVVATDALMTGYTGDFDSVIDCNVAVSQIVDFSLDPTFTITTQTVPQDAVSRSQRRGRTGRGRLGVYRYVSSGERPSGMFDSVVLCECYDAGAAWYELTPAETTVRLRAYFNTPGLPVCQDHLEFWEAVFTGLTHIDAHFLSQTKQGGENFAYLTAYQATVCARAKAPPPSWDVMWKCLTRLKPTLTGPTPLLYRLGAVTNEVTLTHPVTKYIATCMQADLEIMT
Excerpt: as §1, §2, §3

[3] = molecular target: T3, GBV-B NS3-NS4A heterodimer protein (Hepatitis GB virus B, UniProt Q69422); assay: In vitro GBV-B NS3 protease assay (HPLC); assay type: biochemical
T3 construct: The full length GBV-B NS3/NS4A protease gene was isolated from infected tamarin serum; made in house; host or cells: E. coli BL21 DE3 pLysS (pET-29)
T3 sequence (Q69422 1565-1615): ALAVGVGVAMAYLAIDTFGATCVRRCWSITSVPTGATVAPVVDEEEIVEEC
T3 sequence (Q69422 941-1564): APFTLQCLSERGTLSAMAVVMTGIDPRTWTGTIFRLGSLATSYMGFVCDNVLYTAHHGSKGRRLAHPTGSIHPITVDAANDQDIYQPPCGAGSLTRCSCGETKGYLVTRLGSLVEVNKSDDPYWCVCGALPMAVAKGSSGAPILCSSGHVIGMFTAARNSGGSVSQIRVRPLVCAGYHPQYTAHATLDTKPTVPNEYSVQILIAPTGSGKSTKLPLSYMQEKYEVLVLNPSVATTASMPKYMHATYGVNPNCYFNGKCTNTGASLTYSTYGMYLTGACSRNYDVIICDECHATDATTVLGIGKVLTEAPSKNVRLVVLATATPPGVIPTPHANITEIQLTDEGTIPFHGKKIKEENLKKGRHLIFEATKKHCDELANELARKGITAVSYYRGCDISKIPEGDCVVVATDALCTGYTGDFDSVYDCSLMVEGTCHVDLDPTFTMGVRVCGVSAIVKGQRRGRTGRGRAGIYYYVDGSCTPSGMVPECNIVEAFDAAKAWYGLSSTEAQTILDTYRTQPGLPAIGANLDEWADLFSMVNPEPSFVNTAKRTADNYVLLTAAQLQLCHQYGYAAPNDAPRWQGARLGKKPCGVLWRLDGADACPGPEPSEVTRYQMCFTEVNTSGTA
Procedure: The depsipeptide substrate used to assess inhibition of the protease activity of GBV-B NS3-NS4A heterodimer protein was Ac-DED(EDANS)EE-Abu[C(O)—O] ASK(DABCYL)-NH2 (SEQ ID No. 16) This substrate is cleaved between the aminobutyric (Abu) and the alanine residues and products of the reaction were analyzed by HPLC. The protease activity was assayed in 50 mM Tris-HCl;, pH 8.0, 0.25M sodium citrate, 0.01 % n-dodecyl-β-D-maltoside, 1 mM TCEP. The assay was performed in a Microfluor®2 White U-Bottom Microtiter® plate. 5 μM of the substrate and various concentrations of the test compounds were incubated with 0.4 nM of GBV-B NS3-NS4A heterodimer protein for 2 hours at 23° C. under gentle agitation. […] The reaction was terminated by the addition of a 1M 2-[N-morpholino]ethanesulfonic acid solution at pH 5.8. For quantification, the cleavage products and the substrate were separated by HPLC on a Perkin-Elmer® 3×3CR C8 column. The separation was accomplished by initially eluting at 3.5 mL/min with an aqueous solution containing 0.05% phosphoric acid and 3 mM SDS. A 0 to 45% acetonitrile linear gradient in 0.05% phosphoric acid was then applied for 10 minutes. The absorbance was monitored at 210 nm.

COc1ccc2c(O[C@@H]3C[C@H]4C(=O)N[C@]5(C(=O)O)CC5/C=C\CCCCC[C@H](NC(=O)OC(C)(C)C)C(=O)N4C3)cc(-c3csc(NC(C)=O)n3)nc2c1 (stereo partly drawn) [III] was tested. Which IC50 [1] did it give?
The IC50 was 190 nM.

And the IC50 [2]?
Its IC50 is 510 nM.

And the IC50 [3]?
Its IC50 is 31 µM.

What does the source list for COc1ccc2c(O[C@@H]3C[C@H]4C(=O)N[C@]5(C(=O)O)CC5/C=C\CCCCC[C@H](NC(=O)OC5CCCC5)C(=O)N4C3)cc(-c3csc(NC(C)C)n3)nc2c1 (stereo partly drawn) [IV]?
IC50 [1]: 280 nM; IC50 [2]: 260 nM; IC50 [3]: 16 µM

With COc1ccc2c(O[C@@H]3C[C@H]4C(=O)N[C@]5(C(=O)O)CC5/C=C\CCCCC[C@H](NC(=O)OC(C)(C)C)C(=O)N4C3)cc(-c3ccccc3)nc2c1 (stereo partly drawn) [II] as the compound, how does the IC50 [1] read?
The IC50 was 360 nM.

What about the IC50 [2] of the same compound?
Its IC50 is 1000 nM.

And the IC50 [3]?
The IC50 was 36.5 µM.
